Data from PubChem BioAssay AID1963976 (Molecular Pharmacology Branch, DTP, NCI, 2024).

Tested on: 435261-313-R-J1-PDC tumor spheroid viability
Assay: Anticancer human tumor 435261-313-R-J1-PDC patient-derived colon adenocarcinoma cell line growth inhibition [PI3K]
Conditions: spheroids with HUVEC and MSC; for IC50: curve of first compound; for viability, T/C: stronger effect = lower value
In short: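 Spheroid viability read-out. Co-cultures contained the tumor line plus HUVEC and human MSCs. Each agent was paired with a PI3K inhibitor (inavolisib, alpelisib, duvelisib, copanlisib) across half-log dilutions starting at clinical Cmax, or at 10 microM when Cmax was unknown.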
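Further: spheroids exposed to compounds for 7 days.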

`CCCS(=O)(=O)Nc1ccc(F)c(C(=O)c2c[nH]c3ncc(-c4ccc(Cl)cc4)cc23)c1F` + COc1c(OCCCN2CCOCC2)ccc2c3n(c(=NC(=O)c4cnc(N)nc4)nc12)CCN3 was tested, and the IC50 (second compound 0.00316 µM) was 4610 nM, the IC50 (second compound 0.01 µM) was 3020 nM and the IC50 (second compound 0.0316 µM) was less than 31.6 nM. The IC50 (second compound 0.1 µM) was less than 31.6 nM, the IC50 (second compound 0.316 µM) was less than 31.6 nM and the IC50 (second compound 1 µM) was less than 31.6 nM. It also gave a viability, T/C (second compound 0.00316 µM, first compound 0.0316 µM) of 66.6%, a viability, T/C (second compound 0.00316 µM, first compound 0.1 µM) of 77.1% and a viability, T/C (second compound 0.00316 µM, first compound 0.316 µM) of 103%. It also gave a viability, T/C (second compound 0.00316 µM, first compound 1 µM) of 83.7%, a viability, T/C (second compound 0.00316 µM, first compound 3.16 µM) of 72.4% and a viability, T/C (second compound 0.00316 µM, first compound 10 µM) of 4.06%. For the same compound, the viability, T/C (second compound 0.01 µM, first compound 0.0316 µM) was 46.7%, the viability, T/C (second compound 0.01 µM, first compound 0.1 µM) was 71.3% and the viability, T/C (second compound 0.01 µM, first compound 0.316 µM) was 70.8%. It also gave a viability, T/C (second compound 0.01 µM, first compound 1 µM) of 91.2%, a viability, T/C (second compound 0.01 µM, first compound 3.16 µM) of 49.1% and a viability, T/C (second compound 0.01 µM, first compound 10 µM) of 4.19%. It also gave a viability, T/C (second compound 0.0316 µM, first compound 0.0316 µM) of 25.7%, a viability, T/C (second compound 0.0316 µM, first compound 0.1 µM) of 40.4% and a viability, T/C (second compound 0.0316 µM, first compound 0.316 µM) of 27.9%. It also gave a viability, T/C (second compound 0.0316 µM, first compound 1 µM) of 33.9%, a viability, T/C (second compound 0.0316 µM, first compound 3.16 µM) of 31.7% and a viability, T/C (second compound 0.0316 µM, first compound 10 µM) of 5.4%. The viability, T/C (second compound 0.1 µM, first compound 0.0316 µM) was 24.7%, the viability, T/C (second compound 0.1 µM, first compound 0.1 µM) was 18.1% and the viability, T/C (second compound 0.1 µM, first compound 0.316 µM) was 22%. It also gave a viability, T/C (second compound 0.1 µM, first compound 1 µM) of 26.3%, a viability, T/C (second compound 0.1 µM, first compound 3.16 µM) of 22.1% and a viability, T/C (second compound 0.1 µM, first compound 10 µM) of 4.42%. The viability, T/C (second compound 0.316 µM, first compound 0.0316 µM) was 7.13%, the viability, T/C (second compound 0.316 µM, first compound 0.1 µM) was 9.16% and the viability, T/C (second compound 0.316 µM, first compound 0.316 µM) was 10.6%. The viability, T/C (second compound 0.316 µM, first compound 1 µM) was 13.5%, the viability, T/C (second compound 0.316 µM, first compound 3.16 µM) was 13.9% and the viability, T/C (second compound 0.316 µM, first compound 10 µM) was 4.25%. For the same compound, the viability, T/C (second compound 1 µM, first compound 0.0316 µM) was 4.51%, the viability, T/C (second compound 1 µM, first compound 0.1 µM) was 3.63% and the viability, T/C (second compound 1 µM, first compound 0.316 µM) was 4.99%. The viability, T/C (second compound 1 µM, first compound 1 µM) was 5.37%, the viability, T/C (second compound 1 µM, first compound 3.16 µM) was 7.06% and the viability, T/C (second compound 1 µM, first compound 10 µM) was 2.69%.
